Laboratory results from article PMC11520136, “Design, synthesis, and biological investigations of new pyrazole derivatives as VEGFR2/CDK-2 inhibitors targeting liver cancer” (BMC Chemistry, 2024).
Entries after “also recorded” stand apart in the source; their conditions may differ. Each block holds one compound with its values, some of them ahead of it.

Assays:
HepG2 cells [1] = test: MTT cytotoxicity assay against HepG2; format: cell-based; settings: mean ± SD, n = 3
Description: (§1) The cell lines were supplemented with 10% fetal bovine serum (Sigma-Aldrich, MO, USA) and 1% penicillin–streptomycin. Compounds were added to the cells on the second day at doses of “0, 0.01, 0.1, 1, 10, and 100 μM”. Cell viability was assessed after 48 h using the MTT solution (Promega, USA).

THLE2 cells = test: MTT cytotoxicity assay against THLE2; format: cell-based; settings: Homo sapiens, THLE-2, 48 h, normal liver cells, mean ± SD, n = 3
Description: as §1

VEGFR2 kinase = biological target: T1, VEGFR2 kinase (Homo sapiens, UniProt P35968); test: VEGFR2 (KDR) kinase assay kit; format: biochemical; settings: for IC50: average of three independent replicates
T1 construct: purchased BPS Bioscience 40,325

CDK-2 kinase = biological target: T2, CDK-2 kinase (Homo sapiens, UniProt P24941); test: CDK-2 luminescence kinase assay kit; format: biochemical; settings: for IC50: average of three independent replicates
T2 construct: purchased Promega (so in the source) 79,599

HepG2 cells [2] = test: DNA content flow cytometry cell cycle analysis; format: cell-based; settings: HepG2, IC50 values, 48 h; for DNA content %G2/M: control 20.6; for DNA content %S: control 37.59; for DNA content %G0-G1: control 41.81
Description: (§2) HepG2 cells (3–5 105 cells/well) were cultured onto 6-well culture plates and incubated overnight. […] The cells and medium supernatants were then washed with ice-cold PBS. After that, […] of annexin binding buffer solution was added to the cell suspension "25 mM CaCl2, 1.4 M NaCl, and 0.1 M Hepes/NaOH, pH 7.4″ and incubation with “Annexin V-FITC solution (1:100) and propidium iodide (PI)” at a concentration equals 10 µg/mL in the dark for 30 min. The Cytoflex FACS system was then used to acquire the stained cells. cytExpert was used for data analysis.
Kit used : ab139418_Propidium Iodide Flow Cytometry Kit/BD

HepG2 cells [3] = test: Annexin V/PI staining flow cytometry (apoptosis/necrosis); format: cell-based; parameters: Apoptosis Total / Apoptosis Early / Apoptosis Late: unit not given here; settings: for total apoptosis (overall apoptotic cell death): untreated control 0.95%; for Apoptosis Late: Cont.HepG2 0.23; for Apoptosis Early: Cont.HepG2 0.72; for Apoptosis Total: Cont.HepG2 2.47
Description: as §2

HepG2 liver cancer cells = test system: HepG2 liver cancer cells; parameters: method as in PMID 32559576, PMID 37234266, doi:10.1016/j.molstruc.2023.135765; settings: Fig. 1; read-out: IC50 against HepG2 liver cancer cells; cited from earlier work
[4] = HepG2, at the IC50 values, 48 h
[5] = HepG2, at the IC50 values, 48 h, untreated control 1.52%
[6] = supplement lab report, HepG2, Cont.HepG2 1.52

T1 sequence (P35968 20-1356): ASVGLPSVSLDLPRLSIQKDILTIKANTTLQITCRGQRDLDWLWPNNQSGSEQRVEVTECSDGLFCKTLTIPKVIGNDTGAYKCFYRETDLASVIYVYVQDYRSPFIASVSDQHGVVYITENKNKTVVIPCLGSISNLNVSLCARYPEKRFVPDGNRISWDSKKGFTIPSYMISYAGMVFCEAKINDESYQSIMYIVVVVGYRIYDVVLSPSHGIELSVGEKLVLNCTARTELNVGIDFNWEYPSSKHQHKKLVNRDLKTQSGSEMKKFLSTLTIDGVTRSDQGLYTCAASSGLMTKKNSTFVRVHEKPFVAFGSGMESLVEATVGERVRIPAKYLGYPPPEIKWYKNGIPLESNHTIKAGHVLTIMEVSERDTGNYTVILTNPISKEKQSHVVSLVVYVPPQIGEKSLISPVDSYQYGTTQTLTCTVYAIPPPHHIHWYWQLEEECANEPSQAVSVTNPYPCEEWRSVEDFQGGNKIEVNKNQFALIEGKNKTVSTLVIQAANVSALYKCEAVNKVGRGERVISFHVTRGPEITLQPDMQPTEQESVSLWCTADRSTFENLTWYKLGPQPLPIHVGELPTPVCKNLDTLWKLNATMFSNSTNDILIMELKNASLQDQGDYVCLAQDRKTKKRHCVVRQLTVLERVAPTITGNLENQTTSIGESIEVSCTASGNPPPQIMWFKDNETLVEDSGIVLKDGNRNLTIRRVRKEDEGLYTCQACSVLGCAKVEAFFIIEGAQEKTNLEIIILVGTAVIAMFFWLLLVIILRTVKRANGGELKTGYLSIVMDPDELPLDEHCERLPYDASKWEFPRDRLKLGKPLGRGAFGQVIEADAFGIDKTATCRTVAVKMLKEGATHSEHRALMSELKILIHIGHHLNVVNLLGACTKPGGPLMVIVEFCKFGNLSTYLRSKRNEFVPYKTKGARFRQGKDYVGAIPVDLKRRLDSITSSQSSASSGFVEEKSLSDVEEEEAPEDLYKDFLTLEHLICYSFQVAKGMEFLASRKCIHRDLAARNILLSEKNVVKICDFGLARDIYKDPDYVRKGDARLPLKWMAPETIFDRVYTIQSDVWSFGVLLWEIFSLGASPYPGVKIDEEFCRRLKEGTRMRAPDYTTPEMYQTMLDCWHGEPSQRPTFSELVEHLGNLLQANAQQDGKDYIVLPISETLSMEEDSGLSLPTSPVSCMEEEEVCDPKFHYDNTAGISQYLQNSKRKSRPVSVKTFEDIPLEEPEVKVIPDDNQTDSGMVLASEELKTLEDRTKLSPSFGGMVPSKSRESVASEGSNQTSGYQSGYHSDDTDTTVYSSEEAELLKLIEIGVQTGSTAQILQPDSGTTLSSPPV

SMILES: CC1=NN(C(c2ccccc2)N2CCOCC2)C(=O)C1N=Nc1ccccc1 (stereo not drawn) [Compound 3a, 5-Methyl-2-(morpholino(phenyl)methyl)-4-(phenyldiazenyl)-2,4-dihydro-3H-pyrazol-3-one]
IC50 (HepG2 cells [1]; Homo sapiens, HepG2, 48 h): 33.9 ± 1.89 µM
IC50 (THLE2 cells): 41.2 ± 1.19 µM

SMILES: CC1=NN(C(c2ccccc2)N2CCOCC2)C(=O)C1N=Nc1ccccc1[N+](=O)[O-] (stereo not drawn) [Compound 3b, 5-Methyl-2-(morpholino(phenyl)methyl)-4-((2-nitrophenyl)diazenyl)-2,4-dihydro-3H-pyrazol-3-one]
IC50 (HepG2 cells [1]; Homo sapiens, HepG2, 48 h): 55.5 ± 3.1 µM
IC50 (THLE2 cells): 47.2 ± 1.85 µM

SMILES: CC1=NN(C(c2ccccc2)N2CCOCC2)C(=O)C1N=Nc1ccc(Cl)cc1 (stereo not drawn) [Compound 3c, 4-((4-Chlorophenyl)diazenyl)-5-methyl-2-(morpholino(phenyl)methyl)-2,4-dihydro-3H-pyrazol-3-one]
IC50 (THLE2 cells): 34.5 ± 2.1 µM

inhibition at 10 µM (VEGFR2 kinase): 90.5 ± 2.1%
IC50 (VEGFR2 kinase): 550 ± 6 nM
inhibition at 10 µM (CDK-2 kinase): 90.9 ± 1.9%
IC50 (CDK-2 kinase): 205 ± 11 nM
SMILES: CC1=NN(C(c2ccccc2)N2CCCCC2)C(=O)C1N=Nc1ccccc1 (stereo not drawn) [Compound 4a, 5-Methyl-2-(phenyl(piperidin-1-yl)methyl)-4-(phenyldiazenyl)-2,4-dihydro-3H -pyrazol-3-one]
IC50 (HepG2 cells [1]; 48 h): 4.43 ± 0.25 µM
IC50 (HepG2 cells [1]; Homo sapiens, HepG2, 48 h): 4.4 µM
IC50 (THLE2 cells): 27.3 ± 1.15 µM

SMILES: CC1=NN(C(c2ccccc2)N2CCCCC2)C(=O)C1N=Nc1ccccc1[N+](=O)[O-] (stereo not drawn) [Compound 4b, 5-Methyl-4-((2-nitrophenyl)diazenyl)-2-(phenyl(piperidin-1-yl)methyl)-2,4-dihydro-3H-pyrazol-3-one]
IC50 (HepG2 cells [1]; 48 h): 9.34 ± 0.52 µM
IC50 (HepG2 cells [1]; Homo sapiens, HepG2, 48 h): 9.33 µM
IC50 (THLE2 cells): 72.4 ± 2.15 µM

SMILES: CC1=NN(C(c2ccccc2)N2CCCCC2)C(=O)C1N=Nc1ccc(Cl)cc1 (stereo not drawn) [Compound 4c, 4-((4-Chlorophenyl)diazenyl)-5-methyl-2-(phenyl(piperidin-1-yl)methyl)-2,4-dihydro-3H-pyrazol-3-one]
IC50 (HepG2 cells [1]; Homo sapiens, HepG2, 48 h): 25.2 ± 1.41 µM
IC50 (THLE2 cells): 34.7 ± 1.05 µM

inhibition at 10 µM (VEGFR2 kinase): 91.7 ± 3.1%
IC50 (VEGFR2 kinase): 267 ± 1 nM
inhibition at 10 µM (CDK-2 kinase): 91 ± 2.1%
IC50 (CDK-2 kinase): 311 ± 11 nM
SMILES: Cc1nn(C(Nc2ccccc2)c2ccccc2)c(O)c1N=Nc1ccccc1 (stereo not drawn) [Compound 5a, 3-Methyl-1-(phenyl(phenylamino)methyl)-4-(phenyldiazenyl)-1H-pyrazol-5-ol]
DNA content %G2/M (HepG2 cells [2]): 15.61%
DNA content %S (HepG2 cells [2]): 35.21%
DNA content %G0-G1 (HepG2 cells [2]): 49.18%
cell cycle phase of growth arrest (Comment) (HepG2 cells [2]; listed as s20): cell growth arrest@ G1
total apoptosis (overall apoptotic cell death) (HepG2 cells [3]; [4]): 38.32%
necrosis (HepG2 cells [3]; [5]): 4.63%
Apoptosis Late (HepG2 cells [3]; supplement lab report, HepG2): 11.55
Apoptosis Early (HepG2 cells [3]; supplement lab report, HepG2): 26.77
necrosis (HepG2 cells [3]; [6]): 4.63
Apoptosis Total (HepG2 cells [3]; supplement lab report, HepG2): 42.95
IC50 (HepG2 cells [1]; Homo sapiens, HepG2, 48 h): 3.46 ± 0.16 µM
IC50 (THLE2 cells): 48.7 ± 2.05 µM

SMILES: Cc1nn(C(Nc2ccccc2[N+](=O)[O-])c2ccccc2)c(O)c1N=Nc1ccccc1 (stereo not drawn) [Compound 5b, 3-Methyl-1-((2-nitrophenylamino)(phenyl)methyl)-4-(phenyldiazenyl)-1H-pyrazol-5-ol]
IC50 (HepG2 cells [1]; 48 h): 17.3 ± 0.8 µM
IC50 (HepG2 cells [1]; Homo sapiens, HepG2, 48 h): 17.1 µM
IC50 (THLE2 cells): 65.2 ± 2.3 µM

SMILES: Cc1nn(C(Nc2c(C)n(C)n(-c3ccccc3)c2=O)c2ccccc2)c(O)c1N=Nc1ccccc1 (stereo not drawn) [Compound 6a, 4-(((5-Hydroxy-3-methyl-4-(phenyldiazenyl)-1H-pyrazol-1-yl)(phenyl)methyl)amino)-1,5-dimethyl-2-phenyl-1,2-dihydro-3H-pyrazol-3-one]
IC50 (THLE2 cells): 75.3 ± 3.3 µM

inhibition at 10 µM (VEGFR2 kinase): 93.2 ± 2.9%
IC50 (VEGFR2 kinase): 200 ± 1 nM
inhibition at 10 µM (CDK-2 kinase): 88.7 ± 2.6%
IC50 (CDK-2 kinase): 458 ± 17 nM
SMILES: Cc1nn(C(Nc2c(C)n(C)n(-c3ccccc3)c2=O)c2ccccc2)c(O)c1N=Nc1ccccc1[N+](=O)[O-] (stereo not drawn) [Compound 6b, 4-(((5-Hydroxy-3-methyl-4-((2-nitrophenyl)diazenyl)-1H-pyrazol-1-yl)(phenyl)methyl)amino)-1,5-dimethyl-2-phenyl-1,2-dihydro-3H-pyrazol-3-one]
cell cycle phase of growth arrest (Comment) (HepG2 cells [2]): S-phases; also recorded: S phase
DNA content %G2/M (HepG2 cells [2]): 12.49%
DNA content %S (HepG2 cells [2]): 41.33%
DNA content %G0-G1 (HepG2 cells [2]): 46.18%
cell cycle phase of growth arrest (Comment) (HepG2 cells [2]; listed as s31): cell growth arrest@ G1/S
total apoptosis (overall apoptotic cell death) (HepG2 cells [3]; [4]): 42.9%
necrosis (HepG2 cells [3]; [5]): 7.54%
Apoptosis Late (HepG2 cells [3]; supplement lab report, HepG2): 14.48
Apoptosis Early (HepG2 cells [3]; supplement lab report, HepG2): 29.17
necrosis (HepG2 cells [3]; [6]): 7.54
Apoptosis Total (HepG2 cells [3]; supplement lab report, HepG2): 51.19
IC50 (HepG2 cells [1]; Homo sapiens, HepG2, 48 h): 2.52 ± 0.12 µM
IC50 (THLE2 cells): 60.2 ± 2.54 µM

SMILES: COc1ccc(OC)c(NC(=O)c2cc(-c3c[nH]c4ccccc34)n[nH]2)c1 [SI]
IC50 (HepG2 liver cancer cells): 600 nM

SMILES: CNC(=O)c1cc(Oc2ccc(NC(=O)Nc3ccc(Cl)c(C(F)(F)F)c3)cc2)ccn1 [Sorafenib, reference compound]
IC50 (THLE2 cells): 17 ± 0.72 µM

SMILES: COc1cccc2c1C(=O)c1c(O)c3c(c(O)c1C2=O)C[C@@](O)(C(=O)CO)C[C@@H]3O[C@H]1C[C@H](N)[C@H](O)[C@H](C)O1 [doxorubicin, reference compound]
IC50 (HepG2 cells [1]; Homo sapiens, HepG2, 48 h): 2.05 µM
